Test results published in patent US8541670B2, “Compositions and methods for inhibiting tumor cell growth” (priority 2007, dated 2013).
Where no end group is shown, it is not given here. red fluorescent dye = not defined here

Tests used:
N2a cells = test: Trypan blue staining, live and dead cell count; assay type: cell-based
Text: Therefore, in addition to capturing live images, cells were stained with trypan blue at different time intervals following treatment with ZaTa and counted by a light microscope using a hemocytometer.

Abl = molecular target: T1, Abl (Mus musculus, UniProt P00520); test: In vivo selectivity, western blot of phosphorylated substrate after injection into one hemisphere; conditions: versus DMSO hemisphere
T1 construct: from tissue; host or cells: mouse brain hemisphere (striatum injection)
T1 sequence (P00520 whole entry): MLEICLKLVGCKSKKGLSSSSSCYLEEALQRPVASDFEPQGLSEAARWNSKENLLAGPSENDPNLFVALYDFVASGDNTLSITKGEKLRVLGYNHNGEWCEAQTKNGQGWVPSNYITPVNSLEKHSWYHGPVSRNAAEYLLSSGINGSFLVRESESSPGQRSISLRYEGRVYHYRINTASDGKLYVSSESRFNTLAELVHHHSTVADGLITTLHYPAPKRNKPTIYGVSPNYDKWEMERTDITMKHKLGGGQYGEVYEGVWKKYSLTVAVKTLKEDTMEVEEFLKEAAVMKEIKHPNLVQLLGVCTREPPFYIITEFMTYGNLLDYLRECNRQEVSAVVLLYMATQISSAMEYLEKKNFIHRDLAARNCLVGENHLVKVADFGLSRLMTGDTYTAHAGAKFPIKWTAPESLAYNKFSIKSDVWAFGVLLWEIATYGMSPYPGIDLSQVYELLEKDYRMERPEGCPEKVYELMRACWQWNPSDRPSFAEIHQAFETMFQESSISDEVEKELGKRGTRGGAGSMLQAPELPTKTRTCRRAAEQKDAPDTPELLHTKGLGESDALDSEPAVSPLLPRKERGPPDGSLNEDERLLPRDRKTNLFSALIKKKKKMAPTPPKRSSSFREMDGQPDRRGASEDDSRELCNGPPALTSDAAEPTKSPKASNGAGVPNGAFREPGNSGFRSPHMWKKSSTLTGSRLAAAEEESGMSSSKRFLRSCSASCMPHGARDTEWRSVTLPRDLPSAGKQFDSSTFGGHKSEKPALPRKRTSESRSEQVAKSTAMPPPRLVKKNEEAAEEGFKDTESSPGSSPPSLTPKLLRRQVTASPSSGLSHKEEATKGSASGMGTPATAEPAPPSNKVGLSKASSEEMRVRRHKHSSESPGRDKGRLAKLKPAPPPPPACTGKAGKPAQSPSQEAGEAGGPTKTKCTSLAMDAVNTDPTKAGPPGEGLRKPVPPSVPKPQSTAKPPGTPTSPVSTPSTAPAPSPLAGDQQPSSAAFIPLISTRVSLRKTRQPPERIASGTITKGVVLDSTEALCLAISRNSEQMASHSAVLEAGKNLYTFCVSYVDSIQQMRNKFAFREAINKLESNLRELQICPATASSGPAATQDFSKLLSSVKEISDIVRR
Experimental: (§1) To analyze in vivo selectivity, ZaTa was injected into one hemisphere and DMSO in the other hemisphere, as above, and a series of western blot analyses was preformed with phospho-specific antibodies which recognize a phosphorylated substrate or each one of the kinases that ZaTa inhibited at higher concentrations in vitro. […] Given the high functional and structural homology between p70S6K and AKT, the in vivo inhibitory effect of ZaTa on p70S6K was contemplated. Furthermore, the in vivo effect of ZaTa on the phosphorylation levels of substrates for PKA, PKC, CDKs using phospho-specific antibodies recognizing the phosphorylated consensus sites of these kinases was analyzed. In contrast to the consistent decrease in phosphorylation of AKT substrates, significant changes in the phosphorylation level of PKA, PKC and CDKs substrates was not observed after in vivo injection of ZaTa.
(§2) Phosphorylation sites for kinases analyzed herein included Ser-235/236 S6 (a substrate for p70S6K), Tyr-207 CRKL (a substrate for Abl; Zipfel, et al. (2004) supra), Ser-241 PDK1 (a substrate for PI3K), Tyr-1022/1023 JAK1 (a substrate for JAK3; Wang, et al. (2003) supra), Ser-421 Huntingtin (a substrate for SGK; Rangone, et al. (2004) supra), Tyr-783 PLC (a substrate for TrkB; Middlemas, et al. (1994) supra), and Ser-338 cRaf (a substrate for PAK3; King, et al. (1998) supra).

[1] = test system: the other kinases assayed; test: In vivo selectivity, western blot of phosphorylated substrates, other kinases inhibited in vitro at higher concentrations; parameters: species or system mouse; conditions: versus DMSO hemisphere
Experimental: as §1, §2

JAK3 = molecular target: T2, JAK3 (Homo sapiens, UniProt P52333); test: Cell-based kinase assay, phosphorylation of intracellular substrate (Tyr-1022/1023 JAK1)
T2 construct: endogenous in cells
T2 sequence (P52333 1-1124): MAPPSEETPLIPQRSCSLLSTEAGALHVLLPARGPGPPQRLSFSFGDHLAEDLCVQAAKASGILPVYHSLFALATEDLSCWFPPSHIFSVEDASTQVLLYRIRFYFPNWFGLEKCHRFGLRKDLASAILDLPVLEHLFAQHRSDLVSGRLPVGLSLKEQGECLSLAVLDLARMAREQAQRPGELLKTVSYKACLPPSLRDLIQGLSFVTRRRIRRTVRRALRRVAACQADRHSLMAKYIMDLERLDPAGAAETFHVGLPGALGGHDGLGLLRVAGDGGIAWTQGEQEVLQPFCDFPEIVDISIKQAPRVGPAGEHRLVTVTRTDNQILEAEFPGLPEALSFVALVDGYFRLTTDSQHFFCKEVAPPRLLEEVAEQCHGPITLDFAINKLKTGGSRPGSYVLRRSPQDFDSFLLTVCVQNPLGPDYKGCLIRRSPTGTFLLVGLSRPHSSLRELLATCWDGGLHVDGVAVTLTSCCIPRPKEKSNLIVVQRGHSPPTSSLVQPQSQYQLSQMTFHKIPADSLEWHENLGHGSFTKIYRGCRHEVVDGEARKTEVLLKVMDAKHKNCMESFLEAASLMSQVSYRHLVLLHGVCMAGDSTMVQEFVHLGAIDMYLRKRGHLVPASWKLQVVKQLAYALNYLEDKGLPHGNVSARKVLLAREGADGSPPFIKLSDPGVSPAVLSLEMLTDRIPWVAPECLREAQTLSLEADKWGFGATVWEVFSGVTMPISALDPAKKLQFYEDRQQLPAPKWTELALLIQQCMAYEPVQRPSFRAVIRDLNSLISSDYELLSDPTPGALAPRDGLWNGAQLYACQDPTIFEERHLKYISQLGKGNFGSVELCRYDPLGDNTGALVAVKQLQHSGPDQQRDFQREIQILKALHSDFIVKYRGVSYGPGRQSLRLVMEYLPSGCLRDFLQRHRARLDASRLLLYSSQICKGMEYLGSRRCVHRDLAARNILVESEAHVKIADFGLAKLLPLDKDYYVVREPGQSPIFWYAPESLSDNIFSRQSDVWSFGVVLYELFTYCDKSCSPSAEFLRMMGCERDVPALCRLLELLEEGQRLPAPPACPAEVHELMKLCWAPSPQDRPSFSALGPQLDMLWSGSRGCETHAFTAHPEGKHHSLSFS
Experimental: As a specific substrate, the phosphorylation level of GSK-3[…] at Ser-9 was also evaluated. […] The decrease was specific to the AKT phosphorylation site on GSK-3[…] at Ser-9, since a change in the phosphorylation level of GSK-3[…] at Tyr-216 or GSK-3[…] at Tyr-279 was not observed. Moreover, the in vivo reduction of the phosphorylation of AKT substrates was more obvious at the injection site, since a significant change in the phosphorylation of AKT substrates in the frontal cortex or cerebellum between the two hemispheres was not observed. […] To test the specificity/selectivity of ZaTa as the inhibitor of AKT1 versus the other major kinases, a series of in vitro kinase assays was performed at IC50 for AKT1 and at ten times higher concentrations. […]
as §2

AKRVKGRTWTLCGTPEY [ZaTa]
increase in the number of dead cells (N2a cells; counted at time points from 12 to 72 hours): not seen
number of live cells, trypan blue (N2a cells; different time intervals): dose-dependent decrease
in vivo inhibition of Abl (Abl): weaker in vivo inhibition
in vivo inhibitory effects on the other kinases assayed [1]: No in vivo inhibitory effects

labeled ZaTa: ZaTa peptide labeled with a red fluorescent dye at its N-terminus ({red fluorescent dye}-AKRVKGRTWTLCGTPEY; reading uncertain)
inhibition of JAK3 in cells (JAK3): did not cause inhibition
